In patent publication US20200291018A1, “TAM KINASE INHIBITORS” (SYROS PHARMACEUTICALS, INC., priority 2017, published 2020):

What was measured:
[1] = molecular target: T1, FLT3 (Homo sapiens, UniProt P36888); assay: TR-FRET kinase activity assay, FLT3; type: biochemical; conditions: ATP at Km, 60 minutes
T1 sequence (P36888 27-993): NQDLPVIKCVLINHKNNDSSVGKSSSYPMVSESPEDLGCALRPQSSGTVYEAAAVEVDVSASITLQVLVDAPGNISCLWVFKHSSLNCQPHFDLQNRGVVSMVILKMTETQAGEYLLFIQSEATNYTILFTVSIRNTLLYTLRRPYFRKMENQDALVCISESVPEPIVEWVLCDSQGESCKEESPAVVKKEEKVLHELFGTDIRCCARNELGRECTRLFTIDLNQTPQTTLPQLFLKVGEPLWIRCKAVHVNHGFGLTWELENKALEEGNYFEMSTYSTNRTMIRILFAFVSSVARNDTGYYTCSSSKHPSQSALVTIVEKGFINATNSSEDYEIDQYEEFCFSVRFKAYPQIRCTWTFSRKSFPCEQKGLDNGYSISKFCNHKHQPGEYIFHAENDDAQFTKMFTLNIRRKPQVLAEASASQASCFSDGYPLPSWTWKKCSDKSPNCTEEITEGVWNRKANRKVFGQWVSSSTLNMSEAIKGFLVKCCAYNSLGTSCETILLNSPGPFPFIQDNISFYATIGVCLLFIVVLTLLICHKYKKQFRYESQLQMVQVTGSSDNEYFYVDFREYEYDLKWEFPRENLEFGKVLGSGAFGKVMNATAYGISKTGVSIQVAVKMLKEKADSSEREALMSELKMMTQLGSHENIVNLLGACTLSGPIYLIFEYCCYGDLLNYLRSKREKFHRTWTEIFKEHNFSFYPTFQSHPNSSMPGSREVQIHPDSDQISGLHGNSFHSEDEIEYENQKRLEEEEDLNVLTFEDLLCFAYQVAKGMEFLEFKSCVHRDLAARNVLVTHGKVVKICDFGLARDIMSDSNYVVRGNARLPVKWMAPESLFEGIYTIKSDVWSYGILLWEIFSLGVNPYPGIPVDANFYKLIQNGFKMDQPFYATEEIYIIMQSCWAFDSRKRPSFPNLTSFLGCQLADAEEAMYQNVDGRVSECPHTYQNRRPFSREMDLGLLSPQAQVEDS
Procedure, shortened: (§1)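 TR-FRET signal from Eu-labeled phospho-site antibody bound to tyrosine-phosphorylated fluorescent peptide; inhibition lowers signal, giving IC50. Reactions: 50 mM HEPES pH 7.5, 10 mM MgCl2, 1 mM EGTA, 0.01% Brij 35, 1 mM DTT, ATP at Km per enzyme, 60 min, RT.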

[2] = molecular target: T2, TYRO3 (Homo sapiens, UniProt Q06418); assay: TR-FRET kinase activity assay, TYRO3; type: biochemical; conditions: ATP at Km, 60 minutes
T2 sequence (Q06418 41-890): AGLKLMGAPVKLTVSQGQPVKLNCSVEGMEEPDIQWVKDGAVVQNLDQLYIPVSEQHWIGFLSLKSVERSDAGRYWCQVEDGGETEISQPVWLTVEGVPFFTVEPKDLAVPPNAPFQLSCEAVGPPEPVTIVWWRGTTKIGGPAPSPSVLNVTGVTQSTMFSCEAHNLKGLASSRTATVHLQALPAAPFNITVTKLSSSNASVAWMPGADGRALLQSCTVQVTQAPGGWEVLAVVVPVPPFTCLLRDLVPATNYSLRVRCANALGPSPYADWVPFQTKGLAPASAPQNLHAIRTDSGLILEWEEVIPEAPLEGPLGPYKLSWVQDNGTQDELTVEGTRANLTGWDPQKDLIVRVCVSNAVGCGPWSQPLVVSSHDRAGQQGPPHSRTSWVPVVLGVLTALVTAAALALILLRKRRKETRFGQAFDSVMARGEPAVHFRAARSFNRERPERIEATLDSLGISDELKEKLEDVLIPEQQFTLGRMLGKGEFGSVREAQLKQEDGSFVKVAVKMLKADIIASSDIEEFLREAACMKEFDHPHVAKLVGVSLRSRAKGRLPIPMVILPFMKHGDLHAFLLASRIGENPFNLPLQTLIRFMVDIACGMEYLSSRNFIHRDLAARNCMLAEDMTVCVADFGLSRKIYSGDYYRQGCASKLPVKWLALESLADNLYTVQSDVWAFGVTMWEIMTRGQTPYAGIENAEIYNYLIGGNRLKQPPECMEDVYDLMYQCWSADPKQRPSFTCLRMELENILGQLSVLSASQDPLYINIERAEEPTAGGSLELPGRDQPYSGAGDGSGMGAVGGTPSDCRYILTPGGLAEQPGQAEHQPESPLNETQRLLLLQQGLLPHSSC
Procedure, shortened: as §1

| Structure (SMILES) | IC50 [1] [µM] | IC50 [2] [µM] |
| --- | --- | --- |
| CCC(CC)Nc1ncc2c(=O)n(C3CCNCC3)cc([C@H]3CC[C@H](O)CC3)c2n1 [Compound 120] | 1 to 10 | ≤ 0.1 |
| COC[C@H](C)Nc1ncc2c(OC3CCOCC3)ncc([C@H]3CC[C@H](O)CC3)c2n1 [Compound 122, (1S,4r)-4-(2-(((S)-1-methoxypropan-2-yl)amino)-5-((tetrahydro-2H-pyran-4-yl)oxy)pyrido[4,3-d]pyrimidin-8-yl)cyclohexan-1-ol] | 1 to 10 | 0.1 to 1 |
| CCCCNc1ncc2c(NC3CCOCC3)ncc([C@H]3CC[C@H](O)CC3)c2n1 [Compound 124] | ≤ 0.1 | ≤ 0.1 |
| CCCCNc1ncc2c(OCCOC)ncc([C@H]3CC[C@H](O)CC3)c2n1 [Compound 125] | ≤ 0.1 | 1 to 10 |
| CCC[C@H](C)Nc1ncc2c(=O)n(C3CCNCC3)cc([C@H]3CC[C@H](O)CC3)c2n1 [Compound 126] | 1 to 10 | ≤ 0.1 |
| COCCN1C(C)(C)CC(Oc2ncc([C@H]3CC[C@H](O)CC3)c3nc(N[C@@H](C)CC(F)(F)F)ncc23)CC1(C)C [Compound 355] | 0.1 to 1 | ≤ 0.1 |
| Cc1ncc([C@H]2CC[C@H](O)CC2)c2nc(N[C@@H](C)CC(F)(F)F)ncc12 [Compound 356] | 1 to 10 | ≤ 0.1 |
| COC[C@H](C)Nc1ncc2c(O[C@H]3CCOC3)ncc([C@H]3CC[C@H](O)CC3)c2n1 [Compound 357] | 1 to 10 | 0.1 to 1 |
| COC[C@H](C)Nc1ncc2c(OC3CCOCC3)ncc(C3CCC(F)(F)CC3)c2n1 [Compound 358] | 1 to 10 | 0.1 to 1 |
| CCOc1ncc([C@H]2CC[C@H](O)CC2)c2nc(N[C@@H](C)CC(F)(F)F)ncc12 [Compound 359] | 0.1 to 1 | ≤ 0.1 |
| C[C@@H](CC(F)(F)F)Nc1ncc2c(O[C@H]3C[C@@H](O)C3)ncc([C@H]3CC[C@H](O)CC3)c2n1 [Compound 360] | 0.1 to 1 | ≤ 0.1 |
| COC[C@H](C)Nc1ncc2c(OC3CC(C)(C)N(C(C)=O)C(C)(C)C3)ncc([C@H]3CC[C@H](O)CC3)c2n1 [Compound 361] | 1 to 10 | 0.1 to 1 |
| COC[C@H](C)Nc1ncc2c(Nc3ccncc3)ncc([C@H]3CC[C@H](O)CC3)c2n1 [Compound 362] | 1 to 10 | 0.1 to 1 |
| COC[C@H](C)Nc1ncc2c(Nc3cccnc3)ncc([C@H]3CC[C@H](O)CC3)c2n1 [Compound 363] | 1 to 10 | ≤ 0.1 |
| C[C@@H](CC(F)(F)F)Nc1ncc2c(O[C@H]3C[C@H](O)C3)ncc([C@H]3CC[C@H](O)CC3)c2n1 [Compound 364] | 0.1 to 1 | ≤ 0.1 |
| C[C@H](Nc1ncc2c(OC3CCOCC3)ncc([C@H]3CC[C@H](O)CC3)c2n1)C(F)F [Compound 365] | 1 to 10 | ≤ 0.1 |
| COC[C@H](C)Nc1ncc2c(O[C@@H]3CCN(C)C3)ncc([C@H]3CC[C@H](O)CC3)c2n1 [Compound 366] | 1 to 10 | 0.1 to 1 |
| CC[C@@H](C)Nc1ncc2c(OC3CC(C)(C)N(C)C(C)(C)C3)ncc([C@H]3CC[C@H](O)CC3)c2n1 [Compound 367] | 0.1 to 1 | ≤ 0.1 |
| COC[C@H](C)Nc1ncc2c(O[C@H]3CCN(C)C3)ncc([C@H]3CC[C@H](O)CC3)c2n1 [Compound 368] | > 10 | ≤ 0.1 |
| COCCN1CCC(Oc2ncc([C@H]3CC[C@H](O)CC3)c3nc(N[C@@H](C)CC(F)(F)F)ncc23)CC1 [Compound 369] | 1 to 10 | ≤ 0.1 |

| Structure (SMILES) | IC50 [1] [µM] | IC50 [2] [µM] |
| --- | --- | --- |
| C[C@@H](CC(F)(F)F)Nc1ncc2c(OC3C[C@H]4CC[C@@H](C3)N4C)ncc([C@H]3CC[C@H](O)CC3)c2n1 (some centres unmarked) [Compound 370] | 0.1 to 1 | ≤ 0.1 |
| COC[C@H](C)Nc1ncc2c(OC3C[C@@H](C)N(C)[C@@H](C)C3)ncc([C@H]3CC[C@H](O)CC3)c2n1 (some centres unmarked) [Compound 371] | 1 to 10 | ≤ 0.1 |
| COC[C@H](C)Nc1ncc2c(Nc3ccnc(C)c3)ncc([C@H]3CC[C@H](O)CC3)c2n1 [Compound 372] | 1 to 10 | 0.1 to 1 |
| C[C@@H](CC(F)(F)F)Nc1ncc2c(OC3CCN(c4ncccn4)CC3)ncc([C@H]3CC[C@H](O)CC3)c2n1 [Compound 373] | 1 to 10 | ≤ 0.1 |
| COC[C@H](C)Nc1ncc2c(Nc3ccc(C)nc3)ncc([C@H]3CC[C@H](O)CC3)c2n1 [Compound 374] | 1 to 10 | ≤ 0.1 |
| Cc1nccc(N2CCC(Oc3ncc([C@H]4CC[C@H](O)CC4)c4nc(N[C@@H](C)CC(F)(F)F)ncc34)CC2)n1 [Compound 375] | 0.1 to 1 | ≤ 0.1 |
| COCCN1C(C)(C)CC(Oc2ncc([C@H]3CC[C@H](O)CC3)c3nc(N[C@@H](C)CC#N)ncc23)CC1(C)C [Compound 376] | 1 to 10 | ≤ 0.1 |
| COCC(=O)N1C(C)(C)CC(Oc2ncc([C@H]3CC[C@H](O)CC3)c3nc(N[C@@H](C)CC(F)(F)F)ncc23)CC1(C)C [Compound 377] | 1 to 10 | 0.1 to 1 |
| C[C@@H](CC(F)(F)F)Nc1ncc2c(OC3CCN([C@@H]4CCOC4)CC3)ncc([C@H]3CC[C@H](O)CC3)c2n1 [Compound 378] | 1 to 10 | ≤ 0.1 |
| COCCN1C(C)(C)CC(Oc2ncc([C@H]3CC[C@H](O)CC3)c3nc(NC4(C)CC4)ncc23)CC1(C)C [Compound 379] | 0.1 to 1 | ≤ 0.1 |
| COCCN1C(C)(C)CC(Oc2ncc([C@H]3CC[C@H](O)CC3)c3nc(N[C@@H](C)CCO)ncc23)CC1(C)C [Compound 380] | 1 to 10 | ≤ 0.1 |
| COCCN1C(C)(C)CC(Oc2ncc([C@H]3CC[C@H](O)CC3)c3nc(N[C@@H](C)CF)ncc23)CC1(C)C [Compound 381] | 1 to 10 | ≤ 0.1 |
| C[C@@H](CF)Nc1ncc2c(OC3CC(C)(C)N(C)C(C)(C)C3)ncc([C@H]3CC[C@H](O)CC3)c2n1 [Compound 382] | 1 to 10 | ≤ 0.1 |
| C[C@@H](CC(F)(F)F)Nc1ncc2c(OC3CCN([C@H]4CCOC4)CC3)ncc([C@H]3CC[C@H](O)CC3)c2n1 [Compound 383] | 1 to 10 | ≤ 0.1 |
| COC[C@H](C)Nc1ncc2c(O[C@H]3CCN(C)C(C)(C)C3)ncc([C@H]3CC[C@H](O)CC3)c2n1 [Compound 384] | 1 to 10 | ≤ 0.1 |
| COC[C@H](C)Nc1ncc2c(O[C@@H]3CCN(C)C(C)(C)C3)ncc([C@H]3CC[C@H](O)CC3)c2n1 [Compound 385] | 1 to 10 | ≤ 0.1 |
| C[C@@H](CC(F)(F)F)Nc1ncc2c(OC3CC(C)(C)N(C)C(C)(C)C3)ncc([C@H]3CC[C@H](O)CC3)c2n1 [Compound 386] | 0.1 to 1 | ≤ 0.1 |
| COC[C@H](C)Nc1ncc2c(OC3C[C@H](C)N(C)[C@@H](C)C3)ncc([C@H]3CC[C@H](O)CC3)c2n1 (some centres unmarked) [Compound 387] | 1 to 10 | ≤ 0.1 |
| COC[C@H](C)Nc1ncc2c(OC3C[C@@H](C)N(C)[C@H](C)C3)ncc([C@H]3CC[C@H](O)CC3)c2n1 (some centres unmarked) [Compound 388] | 1 to 10 | ≤ 0.1 |
| C[C@@H](CC(F)(F)F)Nc1ncc2c(OC3CCN(S(C)(=O)=O)CC3)ncc([C@H]3CC[C@H](O)CC3)c2n1 [Compound 389] | 1 to 10 | 0.1 to 1 |
